According to US12622968B2, “Formulation for oral delivery of proteins, peptides and small molecules with poor permeability” (R.P. Scherer Technologies, LLC, priority 2019, dated 2026):
Like-named read-outs stand apart in the source and are kept apart here.

Experiment: Single dose oral capsule pharmacokinetics of BHV-3500 in dogs (plasma LC-MS/MS)
Assay type: in vivo, beagle dogs
Settings: female, beagle, dog, plasma; for Tmax: read-out: Tmax; for concentration at 1 h: 1 h post-dose; for concentration at 1 h / concentration at 2 h / concentration at 4 h: read-out: BHV-3500 Concentration in Dog Plasma; for concentration at 2 h: 2 h post-dose; for Cmax: read-out: Cmax; for concentration at 4 h: 4 h post-dose; for AUC(0-t): read-out: AUC0-4 hr
Protocol: The pharmacokinetics (PK) of BHV-3500 after a single oral capsule of BHV-3500 in dogs were investigated.
After each dose, blood samples (approximately 3 mL from the jugular vein) for determination of plasma levels of BHV-3500 were obtained from of each dog at six time points (pre-dose; 15, 30, and 60 minutes and 2 and 4 hours post-dose. EDTA was used as the anticoagulant. Plasma samples were frozen at approximately −70′C until analyzed.
For the determination of BHV-3500 in plasma, a 50 μL aliquot from each sample was transferred into the appropriate well of a 96-well plate to which 10 μL of 50% acetonitrile (ACN) in water was added, followed by 250 μL of internal standard solution (10 ng/mL BHV-3500-d8 in ACN). After sealing the plate and vortexing for approximately 5 minutes, the plate was centrifuged at 4,000 rpm for 10 minutes at 4±4° C. A portion (100 μL) of the resulting supernatant was transferred to into the appropriate well (containing 300 μL 0.15% formic acid in water) of another 96-well plate. This plate was sealed and its contents mixed prior to instrumental analysis.
Freshly prepared BHV-3500 standard curves and QC samples were analyzed along with the study samples. Instrument calibrators were prepared by adding 10 μL of a stock BHV-3500 solution to 50 μL of blank dog plasma. Blank dog plasma was sourced from BioIVT (Hicksville, NY) and stored frozen at −20° C. Nominal calibrator concentrations ranged from 2.00 to 200 ng/mL. QC samples were prepared at concentrations of 6.00, 50.0 and 150 ng/mL. Calibrators and QC samples were processed for analysis following the extraction procedure described above.
Calibrator, QC and study samples were analyzed under LC-S/MS instrument conditions detailed in Table 7.
Calibration curves were calculated from the linear regression (weighting factor of 1/x2) of the analyte to internal standard peak area ratios versus the analyte concentrations. Concentrations of analyte in the samples were determined using the peak area ratios and the regression parameters of the calibration curves.
Individual animal plasma BHV-3500 concentration data at scheduled (nominal) sampling times were analyzed using the non-compartmental model f r extravascular administration with Phoenix WinNonlin software (Version 8.1; Certara, Princeton, NJ).
Elimination rate constant values (λz) were calculated by log-linear regression on data points of the terminal phase (using Phoenix WinNonlin's Best Fit Lambda Z Calculation Method option) when allowed by the data; the plasma elimination half-life (t1/2) was calculated as ln(2)/λz. Area under the plasma concentration-time curve values from time zero to the concentration at the 4 hour time point (AUC0-4 hr) were calculated by the linear-up/log-down trapezoidal rule.
Nominal dose levels were used for PK analysis. The PK parameters listed below were evaluated (as applicable and when allowed by the data). • Elimination half-life (t1/2) • Time of occurrence of maximum plasma concentration (Tmax) • Maximum plasma concentration (Cmax) • Area under plasma concentration-time curve [0 to the 4 hour time point; AUC0-4hr]

[1] = po, 50 mg, Group 4, oral capsule, 50 mg BHV-3500, no vehicle, average
[2] = po, 50 mg, Group 4, oral capsule, 50 mg BHV-3500, no vehicle, individual dogs
[3] = po, 50 mg, Group 5, oral capsule, 50 mg BHV-3500 in 900 mg vehicle of Formulation 2 (SEDDS excipients), average
[4] = po, 50 mg, Group 6, oral capsule, 50 mg BHV-3500 in 25 mg DDM, average
[5] = po, 50 mg, Group 6, oral capsule, 50 mg BHV-3500 in 25 mg DDM, individual dogs
[6] = Group 2, oral capsule, 20 mg BHV-3500 in 900 mg vehicle of Formulation 2 (SEDDS excipients), individual dogs

Work on `Cc1cc(C[C@@H](NC(=O)N2CCC(c3cc4ccccc4[nH]c3=O)CC2)C(=O)N2CCN(C3CCN(C)CC3)CC2)cc2cn[nH]c12` [BHV-3500, (R)—N-(3-(7-methyl-1H indazol-5-yl)-1-(4-(1-methylpiperidin-4-yl)piperazin-1-yl)-1-oxopropan-2-yl)-4-(2-oxo-1,2 dihydroquinolin-3-yl)piperidine-1-carboxamide] yielded a Tmax (po, 20 mg, Group 3, oral capsule, 20 mg BHV-3500 in 25 mg DDM, median) of 2 h, a concentration at 1 h [1] of 3.35 ng/mL and a concentration at 1 h [2] of 2.25 ng/mL. For the same compound, the concentration at 2 h [1] was 6.18 ng/mL, the concentration at 2 h [2] was 7.57 ng/mL and the Cmax [1] was 6.18 ng/mL. For the same compound, the Cmax [2] was 7.57 ng/mL, the Tmax [2] was 2 h and the Tmax (po, 50 mg, Group 4, oral capsule, 50 mg BHV-3500, no vehicle, median) was 2 h. It also gave a concentration at 1 h [3] of 11.5 ng/mL, a concentration at 2 h [3] of 40.6 ng/mL and a concentration at 4 h [3] of 7.97 ng/mL. For the same compound, the AUC(0-t) [3] was 70.6 ng·h/mL, the Cmax [3] was 40.6 ng/mL and the Tmax (po, 50 mg, Group 5, oral capsule, 50 mg BHV-3500 in 900 mg vehicle of Formulation 2 (SEDDS excipients), individual dogs) was 2 h. The Tmax (po, 50 mg, Group 5, oral capsule, 50 mg BHV-3500 in 900 mg vehicle of Formulation 2 (SEDDS excipients), median) was 2 h, the concentration at 1 h [4] was 2.42 ng/mL and the concentration at 1 h [5] was 2.42 ng/mL. It also gave a concentration at 2 h [4] of 6.05 ng/mL, a concentration at 2 h [5] of 6.05 ng/mL and a concentration at 4 h [4] of 8.67 ng/mL. It also gave a concentration at 4 h [5] of 12 ng/mL, an AUC(0-t) [4] of 17.3 ng·h/mL and a Cmax [4] of 6.59 ng/mL. The Tmax (po, 50 mg, Group 6, oral capsule, 50 mg BHV-3500 in 25 mg DDM, median) was 4 h, the concentration at 1 h [6] was 2.57 ng/mL and the concentration at 4 h [6] was 3.09 ng/mL. For the same compound, the concentration at 4 h (Group 6, oral capsule, 50 mg BHV-3500 in 25 mg DDM, individual dogs) was 5.34 ng/mL.
